From the supplement of paper PMC11061612

How the values were obtained:
[1] = system: H-EMC-SS (Chondrosarcoma); assay: combination Emax (second highest fraction inhibited in the dose matrix, 72 h); higher = more inhibition; extreme values may be limits of the assay
How it was run: (§1)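 Cell lines in DMEM/F12 or RPMI with 10% FBS were plated in 1536-well plates, held 24 hours at 37°C, 5% CO2, then given two-drug dose matrices for 72 hours (DMSO typically 0.2%). Viability was read by CellTiter-Glo 2.0 luminescence and scaled as inhibition from 0 (vehicle wells) to 1 (blank wells). Combination Emax is the second-highest inhibition in the matrix; Bliss excess is observed combination effect minus expected EA + EB − EA·EB, EA and EB being single-agent effects.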

[2] = system: OCUM-1 (Gastric Carcinoma); assay: as above
How it was run: as §1

GI-1 (Glioblastoma) = assay: as above
How it was run: as §1

[3] = system: HuP-T3 (Pancreatic Carcinoma); assay: as above
How it was run: as §1

[4] = system: NCI-H2347 (Lung Adenocarcinoma); assay: as above
How it was run: as §1

[5] = system: NCI-H513 (Other Solid Carcinomas); assay: as above
How it was run: as §1

[6] = system: OCUB-M (Breast Carcinoma); assay: as above
How it was run: as §1

[7] = system: EBC-1 (Squamous Cell Lung Carcinoma); assay: Bliss excess, mean over the matrix (fraction); higher = more synergy
How it was run: as §1

NH-12 (Neuroblastoma) = assay: as above
How it was run: as §1

[8] = system: PF-382 (T-Lymphoblastic Leukemia); assay: as above
How it was run: as §1

[9] = system: PFSK-1 (Other Solid Carcinomas); assay: as above
How it was run: as §1

[10] = system: H-EMC-SS (Chondrosarcoma); assay: as above
How it was run: as §1

[11] = system: SCC-3 (B-Cell Non-Hodgkin's Lymphoma); assay: as above
How it was run: as §1

[12] = system: OVISE (Ovarian Carcinoma); assay: as above
How it was run: as §1

[13] = system: KYSE-50 (Esophageal Squamous Cell Carcinoma); assay: as above
How it was run: as §1

[14] = system: EMC-BAC-2 (Non-Small Cell Lung Carcinoma); assay: as above
How it was run: as §1

BT-20 (Breast Carcinoma) = assay: as above
How it was run: as §1

[15] = system: ASH-3 (Thyroid Gland Carcinoma); assay: as above
How it was run: as §1

[16] = system: LC4-1 (B-Lymphoblastic Leukemia); assay: as above
How it was run: as §1

[17] = system: LOU-NH91 (Squamous Cell Lung Carcinoma); assay: as above
How it was run: as §1
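Wherever Bliss excess, mean over the matrix is given: after 72 h of two-drug dosing.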

SMILES | combination Emax [1] | combination Emax [2] | combination Emax (GI-1 (Glioblastoma)) | combination Emax [3] | combination Emax [4] | combination Emax [5] | combination Emax [6] | Bliss excess [7] | Bliss excess (NH-12 (Neuroblastoma)) | Bliss excess [8] | Bliss excess [9] | Bliss excess [10] | Bliss excess [11] | Bliss excess [12] | Bliss excess [13] | Bliss excess [14] | Bliss excess (BT-20 (Breast Carcinoma)) | Bliss excess [15] | Bliss excess [16] | Bliss excess [17]
COc1nnc2ccc(N3CCC(c4ccc(OCCN5CCN(C)C(=O)[C@H]5C)cc4)CC3)nn12 [AZD5153] + Cn1cnc2c(F)c(Nc3ccc(Br)cc3Cl)c(C(=O)NOCCO)cc21 [Selumetinib] (first compound max 1 µM, 7x7, partner max 10 µM) | 0.368 | 0.909 | 0.705 | 0.692 | 0.6 | 0.499 | 0.534 | 0.0979 | -0.0476 | 0.0686 | 0.0031 | 0.0176 | -0.053 | -0.0304 | 0.0571 | -0.0101 | 0.0309 | -0.0338 | 0.012 | -0.0463
NC1(C(=O)N[C@@H](CCO)c2ccc(Cl)cc2)CCN(c2ncnc3[nH]ccc23)CC1 [Capivasertib] + CC(C)n1c(=O)n(C)c2cnc3cc(F)c(-c4ccc(OCCCN5CCCCC5)nc4)cc3c21 [AZD1390] (first compound max 10 µM, 7x7, partner max 0.3 µM) | 0.432 | 0.571 | 0.658 | 0.163 | 0.196 | 0.171 | 1 | -0.0046 | -0.134 | -0.0211 | -0.0598 | -0.0296 | -0.0169 | -0.042 | -0.0723 | -0.0761 | -0.0315 | -0.0478 | 0.0461 | -0.0997
NC1(C(=O)N[C@@H](CCO)c2ccc(Cl)cc2)CCN(c2ncnc3[nH]ccc23)CC1 [Capivasertib] + C[C@@H]1COCCN1C2=NC(=NC(=C2)C3(CC3)[S@](=N)(=O)C)C4=C5C=CNC5=NC=C4 [AZD6738] (first compound max 10 µM, 7x7, partner max 10 µM) | 0.526 | 0.774 | 0.944 | 0.645 | 0.327 | 0.386 | 1 | -0.0315 | -0.0643 | -0.0059 | -0.0956 | -0.0022 | -0.0037 | -0.0459 | -0.0673 | 0.0152 | -0.0442 | -0.0468 | 0.0099 | -0.0192
CN(CCO)CC[C@H](CSc1ccccc1)Nc1ccc(S(=O)(=O)NC(=O)c2ccc(N3CCC([C@@H](O)c4ccccc4-c4ccc(Cl)cc4)CC3)cc2)cc1S(=O)(=O)C(F)(F)F [AZD4320] + C[C@@H]1COCCN1C2=NC(=NC(=C2)C3(CC3)[S@](=N)(=O)C)C4=C5C=CNC5=NC=C4 [AZD6738] (first compound max 1 µM, 7x7, partner max 10 µM) | 0.692 | 0.914 | 0.982 | 0.706 | 0.656 | 0.452 | 0.823 | -0.015 | -0.0795 | -0.0126 | 0.0409 | -0.0351 | 0.014 | -0.0206 | -0.0537 | -0.0695 | 0.0778 | -0.0011 | 0.0481 | 0.0126
COc1nnc2ccc(N3CCC(c4ccc(OCCN5CCN(C)C(=O)[C@H]5C)cc4)CC3)nn12 [AZD5153] + C[C@@H]1COCCN1C2=NC(=NC(=C2)C3(CC3)[S@](=N)(=O)C)C4=C5C=CNC5=NC=C4 [AZD6738] (first compound max 1 µM, 7x7, partner max 10 µM) | 0.321 | 0.641 | 0.97 | 0.705 | 0.525 | 0.523 | 0.735 | 0.0351 | -0.0381 | 0.0239 | -0.0115 | -0.0001 | -0.0195 | -0.0213 | 0.0172 | 0.0722 | -0.0267 | -0.025 | -0.0721 | -0.0012
CN(CCO)CC[C@H](CSc1ccccc1)Nc1ccc(S(=O)(=O)NC(=O)c2ccc(N3CCC([C@@H](O)c4ccccc4-c4ccc(Cl)cc4)CC3)cc2)cc1S(=O)(=O)C(F)(F)F [AZD4320] + C1CN(CCC1(C(=O)N[C@@H](CCO)C2=CC=C(C=C2)Cl)N)C3=NC=NC4=C3C=CN4 [Capivasertib] (first compound max 1 µM, 7x7, partner max 3 µM) | 0.753 | 0.861 | 0.627 | 0.118 | 0.362 | 0.122 | 1 | -0.0181 | -0.0589 | 0.0458 | 0.078 | -0.0081 | -0.0506 | -0.0459 | -0.0344 | -0.0761 | 0.0427 | -0.0192 | 0.0319 | -0.067
COc1nnc2ccc(N3CCC(c4ccc(OCCN5CCN(C)C(=O)[C@H]5C)cc4)CC3)nn12 [AZD5153] + CCN(CCO)CCCOc1ccc2c(Nc3cc(CC(=O)Nc4cccc(F)c4)[nH]n3)ncnc2c1 [AZD2811] (first compound max 1 µM, 7x7, partner max 1 µM) | 0.248 | 0.581 | 0.873 | 0.597 | 0.385 | 0.375 | 0.69 | -0.0274 | -0.121 | -0.0108 | -0.0478 | -0.0226 | 0.0474 | -0.017 | -0.0309 | -0.0242 | -0.0105 | -0.0284 | -0.0739 | -0.0363
